System: H1975
Experiment: Cell proliferation assay, H1975 (lung)
Type: cell-based
Conditions: Homo sapiens, NCI-H1975, 72 hours in presence of compound
Method: Seventeen cancer derived cell lines are used (GTL-16, N87, H1975, A549, H69, A2780, PC3, BT474, SKBR3, MCF-7, A375, MV4;11, K562, KM12L4A, H929, OPM-2 and KMS-11) to test the effect of (R)-2-amino-7-[2-(6-methoxy-pyridin-2-yl)-phenyl]-4-methyl-7,8-dihydro-6H-pyrido[4,3-d]pyrimidin-5-one. These cell lines cover the following 9 tumor types: Gastric, Lung, Ovarian, Prostate, Breast, Melanoma, Leukemia, Colon and Multiple myeloma. After division and medium change, cells from stock culture are seeded on cell plates and cultured for about 18 hours to allow cell growth and attachment before starting the assay. Then on the first day of the assay, (R)-2-amino-7-[2-(6-methoxy-pyridin-2-yl)-phenyl]-4-methyl-7,8-dihydro-6H-pyrido[4,3-d]pyrimidin-5-one is added to the medium at various concentrations. Cells are cultured up to 72 or 96 hours and cell proliferation is determined using commercially available cell proliferation kits.
Table 1 relates to the concentration in nM of (R)-2-amino-7-[2-(6-methoxy-pyridin-2-yl)-phenyl]-4-methyl-7,8-dihydro-6H-pyrido[4,3-d]pyrimidin-5-one which inhibits cell proliferation by 50% (IC50). […]

- GI50: 33 nM
SMILES: COc1cccc(-c2ccccc2[C@H]2Cc3nc(N)nc(C)c3C(=O)N2)n1 [(R)-2-amino-7-[2-(6-methoxy-pyridin-2-yl)-phenyl]-4-methyl-7,8-dihydro-6H-pyrido[4,3-d]pyrimidin-5-one]
